In article PMC3448056, “2-Benzamido-N-(1H-benzo[d]imidazol-2-yl)thiazole-4-carboxamide derivatives as potent inhibitors of CK1δ/ε” (Amino Acids, 2012):

Experiments:
Test in all cases: KINOMEscan selectivity profiling
Type in all cases: binding
CLK1 = molecular target: T1, CLK1 (Homo sapiens, UniProt P49759); details: remaining relative to controls, read-out: %Ctrl @ 10 μM (CLK1)
T1 construct: purchased Ambit Biosciences Cooperation, San Diego, USA (KINOMEscan)
Experimental: (§1) KINOMEscan™ was performed to determine binding constants of coumpound 5 to 442 eukaryotic kinases by Ambit Biosciences Cooperation, San Diego, USA.

CLK2 = molecular target: T2, CLK2 (Homo sapiens, UniProt P49760); details: remaining relative to controls, read-out: %Ctrl @ 10 μM (CLK2)
T2 construct: purchased Ambit Biosciences Cooperation, San Diego, USA (KINOMEscan)
Experimental: as §1

CLK3 = molecular target: T3, CLK3 (Homo sapiens, UniProt P49761); details: remaining relative to controls, read-out: %Ctrl @ 10 μM (CLK3)
T3 construct: purchased Ambit Biosciences Cooperation, San Diego, USA (KINOMEscan)
T3 sequence (P49761 whole entry): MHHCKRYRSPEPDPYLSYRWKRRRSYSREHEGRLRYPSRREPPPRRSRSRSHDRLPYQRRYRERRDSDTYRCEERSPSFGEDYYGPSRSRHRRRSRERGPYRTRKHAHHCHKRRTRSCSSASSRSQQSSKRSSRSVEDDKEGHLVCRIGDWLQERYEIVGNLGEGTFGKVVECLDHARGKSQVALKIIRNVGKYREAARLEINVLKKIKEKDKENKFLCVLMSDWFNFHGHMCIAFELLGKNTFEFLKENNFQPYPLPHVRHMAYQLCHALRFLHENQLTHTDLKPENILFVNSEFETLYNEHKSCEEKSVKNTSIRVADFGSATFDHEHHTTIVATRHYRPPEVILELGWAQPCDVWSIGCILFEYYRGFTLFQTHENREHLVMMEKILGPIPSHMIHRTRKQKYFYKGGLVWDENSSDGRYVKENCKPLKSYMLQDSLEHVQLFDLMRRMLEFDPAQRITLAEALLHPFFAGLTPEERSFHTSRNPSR
Experimental: as §1

CLK4 = molecular target: T4, CLK4 (Homo sapiens, UniProt Q9HAZ1); details: remaining relative to controls, read-out: %Ctrl @ 10 μM (CLK4)
T4 construct: purchased Ambit Biosciences Cooperation, San Diego, USA (KINOMEscan)
Experimental: as §1

CSNK1A1 = molecular target: T5, CSNK1A1 (Homo sapiens, UniProt P48729); details: remaining relative to controls, read-out: %Ctrl @ 10 μM (CSNK1A1)
T5 construct: purchased Ambit Biosciences Cooperation, San Diego, USA (KINOMEscan)
T5 sequence (P48729 whole entry): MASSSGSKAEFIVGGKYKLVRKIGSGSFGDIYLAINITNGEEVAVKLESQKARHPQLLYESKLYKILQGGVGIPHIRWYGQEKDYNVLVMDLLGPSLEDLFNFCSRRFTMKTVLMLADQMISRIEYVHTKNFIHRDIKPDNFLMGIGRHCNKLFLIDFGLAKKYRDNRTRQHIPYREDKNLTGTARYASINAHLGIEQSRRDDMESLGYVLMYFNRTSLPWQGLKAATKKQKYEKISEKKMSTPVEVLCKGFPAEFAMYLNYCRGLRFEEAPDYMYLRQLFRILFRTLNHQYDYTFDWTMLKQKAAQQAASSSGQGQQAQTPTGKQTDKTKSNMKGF
Experimental: as §1

CSNK1A1L = molecular target: T6, CSNK1A1L (Homo sapiens, UniProt Q8N752); details: remaining relative to controls, read-out: %Ctrl @ 10 μM (CSNK1A1L)
T6 construct: purchased Ambit Biosciences Cooperation, San Diego, USA (KINOMEscan)
Experimental: as §1

CSNK1D = molecular target: T7, CSNK1D (Homo sapiens, UniProt P48730); details: remaining relative to controls, read-out: %Ctrl @ 10 μM (CSNK1D)
T7 construct: purchased Ambit Biosciences Cooperation, San Diego, USA (KINOMEscan)
Experimental: as §1

CSNK1E = molecular target: T8, CSNK1E (Homo sapiens, UniProt P49674); details: remaining relative to controls, read-out: %Ctrl @ 10 μM (CSNK1E)
T8 construct: purchased Ambit Biosciences Cooperation, San Diego, USA (KINOMEscan)
Experimental: as §1

CSNK1G2 = molecular target: T9, CSNK1G2 (Homo sapiens, UniProt P78368); details: remaining relative to controls, read-out: %Ctrl @ 10 μM (CSNK1G2)
T9 construct: purchased Ambit Biosciences Cooperation, San Diego, USA (KINOMEscan)
Experimental: as §1

CSNK1G3 = molecular target: T10, CSNK1G3 (Homo sapiens, UniProt Q9Y6M4); details: remaining relative to controls, read-out: %Ctrl @ 10 μM (CSNK1G3)
T10 construct: purchased Ambit Biosciences Cooperation, San Diego, USA (KINOMEscan)
Experimental: as §1

DYRK1A = molecular target: T11, DYRK1A (Homo sapiens, UniProt Q13627); details: remaining relative to controls, read-out: %Ctrl @ 10 μM (DYRK1A)
T11 construct: purchased Ambit Biosciences Cooperation, San Diego, USA (KINOMEscan)
Experimental: as §1

DYRK1B = molecular target: T12, DYRK1B (Homo sapiens, UniProt Q9Y463); details: remaining relative to controls, read-out: %Ctrl @ 10 μM (DYRK1B)
T12 construct: purchased Ambit Biosciences Cooperation, San Diego, USA (KINOMEscan)
T12 sequence (Q9Y463 whole entry): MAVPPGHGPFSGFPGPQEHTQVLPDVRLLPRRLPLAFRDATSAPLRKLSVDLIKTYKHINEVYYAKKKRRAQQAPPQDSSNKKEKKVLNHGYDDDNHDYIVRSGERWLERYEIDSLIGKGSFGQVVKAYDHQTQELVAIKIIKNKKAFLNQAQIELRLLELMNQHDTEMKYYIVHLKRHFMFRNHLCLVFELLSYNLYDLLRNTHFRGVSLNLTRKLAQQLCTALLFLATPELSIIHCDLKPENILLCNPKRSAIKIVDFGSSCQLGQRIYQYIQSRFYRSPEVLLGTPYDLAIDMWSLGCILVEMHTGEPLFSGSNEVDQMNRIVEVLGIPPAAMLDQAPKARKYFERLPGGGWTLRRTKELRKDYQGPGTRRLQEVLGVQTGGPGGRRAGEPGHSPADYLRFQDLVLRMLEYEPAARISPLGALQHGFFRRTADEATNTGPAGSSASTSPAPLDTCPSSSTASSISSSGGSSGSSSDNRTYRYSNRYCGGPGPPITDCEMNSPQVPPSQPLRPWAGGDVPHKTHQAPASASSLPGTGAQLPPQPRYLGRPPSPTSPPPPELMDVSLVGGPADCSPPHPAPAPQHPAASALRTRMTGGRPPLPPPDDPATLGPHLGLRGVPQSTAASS
Experimental: as §1

DYRK2 = molecular target: T13, DYRK2 (Homo sapiens, UniProt Q92630); details: remaining relative to controls, read-out: %Ctrl @ 10 μM (DYRK2)
T13 construct: purchased Ambit Biosciences Cooperation, San Diego, USA (KINOMEscan)
Experimental: as §1

FLT3(D835H) = molecular target: T14, FLT3(D835H) (Homo sapiens, UniProt P36888, D835H); details: remaining relative to controls, read-out: %Ctrl @ 10 μM (FLT3(D835H))
T14 construct: purchased Ambit Biosciences Cooperation, San Diego, USA (KINOMEscan)
Experimental: as §1

FLT3(D835Y) = molecular target: T15, FLT3(D835Y) (Homo sapiens, UniProt P36888, D835Y); details: remaining relative to controls, read-out: %Ctrl @ 10 μM (FLT3(D835Y))
T15 construct: purchased Ambit Biosciences Cooperation, San Diego, USA (KINOMEscan)
Experimental: as §1

IRAK3 = molecular target: T16, IRAK3 (Homo sapiens, UniProt Q9Y616); details: remaining relative to controls, read-out: %Ctrl @ 10 μM (IRAK3)
T16 construct: purchased Ambit Biosciences Cooperation, San Diego, USA (KINOMEscan)
T16 sequence (Q9Y616 whole entry): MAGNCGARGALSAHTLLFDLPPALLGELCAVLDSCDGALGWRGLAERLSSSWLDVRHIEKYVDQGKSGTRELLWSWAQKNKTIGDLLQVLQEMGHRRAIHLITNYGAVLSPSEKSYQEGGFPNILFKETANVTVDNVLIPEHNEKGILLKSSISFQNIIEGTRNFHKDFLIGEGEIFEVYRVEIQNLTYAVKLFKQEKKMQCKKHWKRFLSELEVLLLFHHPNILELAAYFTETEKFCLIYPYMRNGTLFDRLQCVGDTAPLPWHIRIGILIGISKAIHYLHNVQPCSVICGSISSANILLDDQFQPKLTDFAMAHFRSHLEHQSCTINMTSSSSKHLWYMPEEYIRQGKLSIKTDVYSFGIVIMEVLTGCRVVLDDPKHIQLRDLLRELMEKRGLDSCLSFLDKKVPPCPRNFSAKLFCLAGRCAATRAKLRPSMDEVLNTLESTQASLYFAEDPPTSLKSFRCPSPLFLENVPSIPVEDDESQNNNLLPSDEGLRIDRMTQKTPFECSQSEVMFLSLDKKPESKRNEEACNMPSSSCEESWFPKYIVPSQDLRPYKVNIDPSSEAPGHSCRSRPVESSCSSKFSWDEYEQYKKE
Experimental: as §1

PIP5K2C = molecular target: T17, PIP5K2C (Homo sapiens, UniProt Q8TBX8); details: remaining relative to controls, read-out: %Ctrl @ 10 μM (PIP5K2C)
T17 construct: purchased Ambit Biosciences Cooperation, San Diego, USA (KINOMEscan)
Experimental: as §1

SLK = molecular target: T18, SLK (Homo sapiens, UniProt Q9H2G2); details: remaining relative to controls, read-out: %Ctrl @ 10 μM (SLK)
T18 construct: purchased Ambit Biosciences Cooperation, San Diego, USA (KINOMEscan)
T18 sequence (Q9H2G2 whole entry): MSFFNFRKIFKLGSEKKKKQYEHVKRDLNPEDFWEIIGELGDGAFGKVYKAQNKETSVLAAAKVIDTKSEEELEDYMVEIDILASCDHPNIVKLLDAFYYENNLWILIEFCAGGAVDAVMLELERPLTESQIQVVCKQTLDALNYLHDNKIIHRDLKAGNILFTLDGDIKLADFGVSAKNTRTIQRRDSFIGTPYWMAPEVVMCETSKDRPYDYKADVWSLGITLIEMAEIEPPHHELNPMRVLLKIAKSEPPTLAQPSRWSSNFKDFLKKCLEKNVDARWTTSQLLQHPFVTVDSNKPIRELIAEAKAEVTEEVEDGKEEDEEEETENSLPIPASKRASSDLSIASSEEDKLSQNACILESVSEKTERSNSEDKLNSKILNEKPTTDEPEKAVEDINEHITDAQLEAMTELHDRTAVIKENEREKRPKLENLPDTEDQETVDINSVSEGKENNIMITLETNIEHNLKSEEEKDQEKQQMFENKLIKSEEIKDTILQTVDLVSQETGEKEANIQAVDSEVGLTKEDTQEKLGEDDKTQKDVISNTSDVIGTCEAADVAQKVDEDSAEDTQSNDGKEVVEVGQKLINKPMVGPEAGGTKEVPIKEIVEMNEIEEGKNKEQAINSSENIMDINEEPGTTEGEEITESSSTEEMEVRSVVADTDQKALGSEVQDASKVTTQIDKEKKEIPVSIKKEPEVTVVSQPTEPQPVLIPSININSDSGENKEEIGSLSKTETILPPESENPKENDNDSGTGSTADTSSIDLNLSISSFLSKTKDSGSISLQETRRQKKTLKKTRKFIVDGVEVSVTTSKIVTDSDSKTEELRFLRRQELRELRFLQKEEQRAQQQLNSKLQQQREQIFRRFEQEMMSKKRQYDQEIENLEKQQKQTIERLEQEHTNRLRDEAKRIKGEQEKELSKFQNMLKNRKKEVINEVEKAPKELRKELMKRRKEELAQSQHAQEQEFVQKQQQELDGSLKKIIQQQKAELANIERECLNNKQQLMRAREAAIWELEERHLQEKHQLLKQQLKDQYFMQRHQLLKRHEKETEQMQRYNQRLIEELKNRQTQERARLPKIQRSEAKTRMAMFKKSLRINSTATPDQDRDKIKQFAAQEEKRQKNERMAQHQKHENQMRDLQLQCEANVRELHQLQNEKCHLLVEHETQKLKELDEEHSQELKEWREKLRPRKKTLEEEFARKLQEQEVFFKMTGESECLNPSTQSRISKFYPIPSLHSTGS
Experimental: as §1

TAOK1 = molecular target: T19, TAOK1 (Homo sapiens, UniProt Q7L7X3); details: remaining relative to controls, read-out: %Ctrl @ 10 μM (TAOK1)
T19 construct: purchased Ambit Biosciences Cooperation, San Diego, USA (KINOMEscan service)
T19 sequence (Q7L7X3 whole entry): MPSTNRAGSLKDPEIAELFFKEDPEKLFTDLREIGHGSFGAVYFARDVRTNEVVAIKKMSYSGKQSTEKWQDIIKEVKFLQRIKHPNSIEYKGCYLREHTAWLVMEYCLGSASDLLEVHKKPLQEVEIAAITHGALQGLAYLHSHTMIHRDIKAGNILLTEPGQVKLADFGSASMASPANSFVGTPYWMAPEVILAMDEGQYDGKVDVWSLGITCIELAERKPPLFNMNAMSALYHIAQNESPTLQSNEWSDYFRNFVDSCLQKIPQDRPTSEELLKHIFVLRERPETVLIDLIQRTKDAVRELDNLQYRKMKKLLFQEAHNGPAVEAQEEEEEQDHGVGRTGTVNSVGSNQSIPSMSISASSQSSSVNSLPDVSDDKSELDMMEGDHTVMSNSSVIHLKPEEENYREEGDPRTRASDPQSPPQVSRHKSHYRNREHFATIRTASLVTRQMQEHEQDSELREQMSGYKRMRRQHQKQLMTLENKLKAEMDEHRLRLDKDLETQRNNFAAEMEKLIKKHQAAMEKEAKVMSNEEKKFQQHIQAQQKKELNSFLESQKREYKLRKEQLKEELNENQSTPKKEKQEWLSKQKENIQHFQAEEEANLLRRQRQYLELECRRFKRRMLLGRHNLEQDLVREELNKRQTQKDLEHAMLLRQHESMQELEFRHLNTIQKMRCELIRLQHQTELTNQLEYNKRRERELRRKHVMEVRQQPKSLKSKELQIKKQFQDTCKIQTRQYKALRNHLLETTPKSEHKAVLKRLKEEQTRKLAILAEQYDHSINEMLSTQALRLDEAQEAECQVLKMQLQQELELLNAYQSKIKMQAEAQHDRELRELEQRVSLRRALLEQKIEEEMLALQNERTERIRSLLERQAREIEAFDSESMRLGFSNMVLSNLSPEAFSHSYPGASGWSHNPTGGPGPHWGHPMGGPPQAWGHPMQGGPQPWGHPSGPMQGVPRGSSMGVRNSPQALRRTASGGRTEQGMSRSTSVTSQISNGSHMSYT
Experimental: as §1

TAOK3 = molecular target: T20, TAOK3 (Homo sapiens, UniProt Q9H2K8); details: remaining relative to controls, read-out: %Ctrl @ 10 μM (TAOK3)
T20 construct: purchased Ambit Biosciences Cooperation, San Diego, USA (KINOMEscan service)
Experimental: as §1

T1 sequence (P49759 whole entry): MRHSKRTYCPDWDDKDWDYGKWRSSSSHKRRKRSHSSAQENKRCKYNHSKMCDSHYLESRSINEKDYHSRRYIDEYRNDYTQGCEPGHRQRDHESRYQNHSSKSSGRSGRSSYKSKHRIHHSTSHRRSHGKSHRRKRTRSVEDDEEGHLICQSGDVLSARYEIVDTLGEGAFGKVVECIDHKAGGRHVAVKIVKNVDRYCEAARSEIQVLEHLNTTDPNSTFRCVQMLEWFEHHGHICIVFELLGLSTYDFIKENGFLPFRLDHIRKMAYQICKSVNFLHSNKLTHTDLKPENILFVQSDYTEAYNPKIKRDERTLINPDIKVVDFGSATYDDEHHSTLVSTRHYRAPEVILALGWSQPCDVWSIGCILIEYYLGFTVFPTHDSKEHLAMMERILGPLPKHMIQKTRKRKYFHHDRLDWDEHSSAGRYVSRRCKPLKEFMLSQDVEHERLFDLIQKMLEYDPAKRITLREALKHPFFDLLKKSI

With `O=C(Nc1nc2ccc(C(F)(F)F)cc2[nH]1)c1csc(NC(=O)c2ccccc2OC(F)(F)F)n1` [Compound 5, 2-(2-(Trifluoromethoxy)benzamido)-N-(6-(trifluoromethyl)-1H-benzo[d]imidazol-2-yl)thiazole-4-carboxamide] the remaining binding at 10 µM (CLK1) was 2.6%, the remaining binding at 10 µM (CLK2) was 10% and the remaining binding at 10 µM (CLK3) was 20%. The remaining binding at 10 µM (CLK4) was 7.2%, the remaining binding at 10 µM (CSNK1A1) was 3% and the remaining binding at 10 µM (CSNK1A1L) was 1%. For the same compound, the remaining binding at 10 µM (CSNK1D) was 2%, the remaining binding at 10 µM (CSNK1E) was 0.35% and the remaining binding at 10 µM (CSNK1G2) was 9.9%. It also gave a remaining binding at 10 µM (CSNK1G3) of 31%, a remaining binding at 10 µM (DYRK1A) of 4.1% and a remaining binding at 10 µM (DYRK1B) of 6.6%. The remaining binding at 10 µM (DYRK2) was 17%, the remaining binding at 10 µM (FLT3(D835H)) was 25% and the remaining binding at 10 µM (FLT3(D835Y)) was 10%. It also gave a remaining binding at 10 µM (IRAK3) of 27%, a remaining binding at 10 µM (PIP5K2C) of 9.6% and a remaining binding at 10 µM (SLK) of 12%. For the same compound, the remaining binding at 10 µM (TAOK1) was 24% and the remaining binding at 10 µM (TAOK3) was 20%.
